Assay results published in patent US20110312984A1, “STAT3 INHIBITORS” (priority 2008, published 2011).

System: triple negative human breast cancer xenograft
Assay: Triple-negative human breast cancer xenograft, MSFE after two days of treatment
Assay type: in vivo, SCID Beige mice
Details: 250 mcg, n=3, P<0.05
Source text: A tumor line derived from a “triple negative” (ER-negative, PgR-negative, and HER-2 negative) human breast cancer biopsy specimen was transplanted into immunocompromised SCID Beige mice. The animals (n=3) received two doses of vehicle control, 2 different doses of Cpd 188 (125 or 250 mcg), a G-quartet oligodeoxynucleotide (GQ-ODN, T40214; GQ-I) previously determined to target Stat3 (Jing et al., 2004) and a control non-specific ODN (GQ-II) each at two doses (125 or 250 mcg). The animals were sacrificed after only two days of treatment, and MSFE determined.
Xenograft assays. One can use two xenografts developed from human breast cancer biopsies that express activated p-Stat3 by IHC. From these established xenograft lines, for each of the top 5 inhibitors, the following studies may be undertaken: a) short term experiments with stem cell inhibitors at two doses vs. vehicle control and b) the optimal dose of the combination of chemotherapy with each of the five stem cell inhibitors.
a) Short term (2-day) experiments: One can test the five inhibitors at 2 doses. […]
b) Long-term (2-week studies) experiments: One can assess the effect of the self-renewal inhibitor on tumor growth and stem cell behavior. […] Size of the xenografts is monitored longitudinally by caliper measurement using the RECIST criteria for assessment of tumor response. […]

O=C(O)CSc1cc(NS(=O)(=O)c2ccc(C(=O)O)cc2)c2ccccc2c1O [Cpd188, 4-[({3-[(carboxymethyl)thio]-4-hydroxy-1-naphthyl}amino)sulfonyl]benzoic acid]
reduction in MSFE compared to control: significant reduction
